Measurements reported in US20240327359A1, “3-ISOXAZOLIDINONE COMPOUND, PREPARATION METHOD, HERBICIDAL COMPOSITION AND APPLICATION THEREOF” (QINGDAO KINGAGROOT CHEMICAL COMPOUND CO., LTD., priority 2021, published 2024).

Legend:
Type in all cases: in vivo
[1] = tested on: Echinochloa crusgalli, Leptochloa chinensis, Digitaria sanguinalis, Descurainia Sophia, Capsella bursa-pastoris, Galium aparine, Stellaria media, Lolium …; assay: Field test, weed control; conditions: applied after planting and pre-emergence at 300 g a.i./ha
Abutilon theophrasti = assay: Weeding effect in post-emergence stage; conditions: 720 g a.i./ha, 3 weeks after application
Source text: (§1) The activity level criteria for plant damage (i.e., growth control rate) are as follows:
(§2) The above growth control rates are fresh weight control rates.
(§3) Monocotyledonous and dicotyledonous weed seeds (Descurainia sophia, Capsella bursa-pastoris, Abutilon theophrasti, Galium aparine, Stellaria media, Lithospermum arvense, Rorippa indica, Alopecurus aequalis, Alopecurus japonicus, Eleusine indica, Beckmannia syzigachne, Sclerochloa dura, Phleum paniculatum, Veronica didyma, Bromus japonicus, Aegilops tauschii, Phalaris arundinacea, Amaranthus retroflexus, Chenopodiaceae, Commelina communis, Sonchus arvensis, Convolvulus arvensis, Cirsium setosum, Solanumnigrum, Acalypha australis, Digitaria sanguinalis, Echinochloa crusgalli, Setaria viridis, Setaria glauca, Leptochloa chinensis, Monochoria vaginalis, Sagittaria trifolia, Scirpus juncoides, Cyperus rotundus, Cyperus iria, Cyperus difformis, Fimbristylis, Portulaca oleracea, Xanthium sibiricum, Pharbitis nil, Conyza Canadensis, etc.) and major crop seeds (wheat, corn, rice, soybean, cotton, oilseed rape, millet, sorghum, potato, sesame, ricinus, etc.) were placed in plastic pots filled with soil, then covered with 0.5-2 cm of soil, allowed to grow in a good greenhouse environment. Two weeks after sowing, the test plants were treated in the 2-3 leaf stage. The tested compounds of the present invention were respectively dissolved in acetone, then added with Tween 80 and 1.5 liter/ha of emulsifiable concentrate of methyl oleate as synergist, diluted with a certain amount of water to obtain a solution of a certain concentration, and sprayed by a spray tower onto the plants. After the application, the plants were cultured for 3 weeks in the greenhouse, and then the experimental results of the weeding were recorded. The doses of the used compounds were 45, 90, 180, 360, 720 g a.i./ha, and the averages were obtained from three replicates.

Alopecurus japonicus = assay: Weeding effect in post-emergence stage; conditions: 720 g a.i./ha, 3 weeks after application
Source text: as §1, §2, §3

Digitaria sanguinalis = assay: Weeding effect in post-emergence stage; conditions: 720 g a.i./ha, 3 weeks after application
Source text: as §1, §2, §3

Leptochloa chinensis = assay: Weeding effect in post-emergence stage; conditions: 720 g a.i./ha, 3 weeks after application
Source text: as §1, §2, §3

[2] = tested on: Echinochloa crusgalli, Scirpus juncoides, Bidens tripartita L., Sagittaria trifolia; rice (japonica rice); assay: Transplanted rice safety evaluation and weed control effect evaluation in rice field; conditions: weeds 14 days, rice 21 days after treatment; observed with the naked eye
Experimental: Rice field soil was loaded into a 1/1,000,000 ha pot. The seeds of Echinochloa crusgalli, Scirpus juncoides, and Bidens tripartita L. were sowed and gently covered with soil, then placed in a greenhouse with water storage of 0.5-1 cm deep. The tuber of Sagittaria trifolia was planted in the next day or 2 days later. The water storage was kept at a depth of 3-4 cm thereafter. The weeds were treated by homogeneously dripping the WP or SC water diluents of the compounds of the present invention prepared according to the common preparation methods with a pipette to the specified effective amount when the Echinochloa crusgalli, Scirpus juncoides, and Bidens tripartita L. reached their 0.5 leaf stages and the Sagittaria trifolia reached the time point of the primary leaf stage.
In addition, the rice field soil that loaded into the 1/1,000,000 ha pot was leveled to keep water storage at a depth of 3-4 cm. […]
The development condition of Echinochloa crusgalli, Scirpus juncoides, Bidens tripartita L., and Sagittaria trifolia 14 days after the treatment of the compound of the invention and the development condition of rice 21 days after the treatment of the compound of the invention were respectively observed with the naked eye. The weed control effect was evaluated according to the above activity level criteria. […]

soy bean = assay: Pre-emergence stage, crop damage; conditions: 2 weeks
Source text: as §1, §2
(§4) Monocotyledonous and dicotyledonous weed seeds (Descurainia sophia, Capsella bursa-pastoris, Abutilon theophrasti, Galium aparine, Stellaria media, Lithospermum arvense, Rorippa indica, Alopecurus aequalis, Alopecurus japonicus, Eleusine indica, Beckmannia syzigachne, Sclerochloa dura, Phleum paniculatum, Veronica didyma, Bromus japonicus, Aegilops tauschii, Phalaris arundinacea, Amaranthus retroflexus, Chenopodiaceae, Commelina communis, Sonchus arvensis, Convolvulus arvensis, Cirsium setosum, Solanumnigrum, Acalypha australis, Digitaria sanguinalis, Echinochloa crusgalli, Setaria viridis, Setaria glauca, Leptochloa chinensis, Monochoria vaginalis, Sagittaria trifolia, Scirpus juncoides, Cyperus rotundus, Cyperus iria, Cyperus difformis, Fimbristylis, Portulaca oleracea, Xanthium sibiricum, Pharbitis nil, Conyza Canadensis, etc.) and major crop seeds (wheat, corn, rice, soybean, cotton, oilseed rape, millet, sorghum, potato, sesame, ricinus, etc.) were placed in plastic pots filled with soil, then covered with 0.5-2 cm of soil, allowed to grow in a good greenhouse environment. The test plants were treated on the day of sowing. The tested compounds of the present invention were respectively dissolved in acetone, then added with Tween 80, diluted with a certain amount of water to obtain a solution of a certain concentration, and sprayed by a spray tower onto the plants. After the application, the plants were cultured for 2 weeks in the greenhouse, and then the experimental results of the weeding were recorded. The doses of the used compounds were 3, 6, 12, 24, 48 g ai./mu (1 mu=1/15 ha), and the averages were obtained from three replicates.

cotton = assay: Pre-emergence stage, crop damage; conditions: 2 weeks
Source text: as §1, §2, §4

rice = assay: Pre-emergence stage, crop damage; conditions: 2 weeks
Source text: as §1, §2, §4

corn = assay: Pre-emergence stage, crop damage; conditions: 24 g a.i./mu, 2 weeks
Source text: as §1, §2, §4

wheat = assay: Pre-emergence stage, crop damage; conditions: 2 weeks
Source text: as §1, §2, §4

peanut = assay: Pre-emergence stage, crop damage; conditions: 48 g a.i./mu, 2 weeks
Source text: as §1, §2, §4

Echinochloa crusgalli = assay: Weeding effect in pre-emergence stage; conditions: 2 weeks
Source text: as §1, §2, §4

Veronica didyma = assay: Weeding effect in pre-emergence stage; conditions: 2 weeks
Source text: as §1, §2, §4

Lolium perenne = assay: Weeding effect in pre-emergence stage; conditions: 2 weeks
Source text: as §1, §2, §4

`CC1(C)CON(Cc2ccc(Cl)cc2Br)C1=O` [Compound 1] was tested, and the “control of major weeds in field test” value [1] was “effectively controls”, the “weeding effect in post-emergence stage, activity level (growth control rate)” value (“weeding effect in post-emergence stage” below) (Abutilon theophrasti) was 5 (Level 5: growth control rate is greater than or equal to 85%) and the “weeding effect in post-emergence stage” value (Alopecurus japonicus) was 4 (Level 4: growth control rate is greater than or equal to 60% and less than 85%). For the same compound, the “weeding effect in post-emergence stage” value (Digitaria sanguinalis) was 5 (Level 5: growth control rate is greater than or equal to 85%), the “weeding effect in post-emergence stage” value (Leptochloa chinensis) was 5 (Level 5: growth control rate is greater than or equal to 85%) and the “weed control effect and transplanted rice safety in rice field” value [2] was “excellent activity and selectivity”. For the same compound, the “plant damage level (growth control rate) on crop, pre-emergence stage” value (shortened to “plant damage level (growth control rate)”) (soy bean; 24 g a.i./mu) was 0, the “plant damage level (growth control rate)” value (soy bean; 48 g a.i./mu) was 0 and the “plant damage level (growth control rate)” value (cotton; 12 g a.i./mu) was 0. For the same compound, the “plant damage level (growth control rate)” value (cotton; 24 g a.i./mu) was 0, the “plant damage level (growth control rate)” value (rice; 6 g a.i./mu) was 0 and the “plant damage level (growth control rate)” value (rice; 12 g a.i./mu) was 0. The “plant damage level (growth control rate)” value (rice; 24 g a.i./mu) was 1 (Level 1: growth control rate is greater than 0% and less than 15%), the “plant damage level (growth control rate)” value (corn) was 0 and the “plant damage level (growth control rate)” value (wheat; 6 g a.i./mu) was 0. The “plant damage level (growth control rate)” value (wheat; 12 g a.i./mu) was 0, the “plant damage level (growth control rate)” value (wheat; 24 g a.i./mu) was 0 and the “plant damage level (growth control rate)” value (peanut) was 0. For the same compound, the “weeding effect in pre-emergence stage, activity level (growth control rate)” value (from here on “weeding effect in pre-emergence stage”) (Echinochloa crusgalli; 3 g a.i./mu) was 8 (Level 8: growth control rate is greater than or equal to 80% and less than 100%), the “weeding effect in pre-emergence stage” value (Echinochloa crusgalli; 6 g a.i./mu) was 9 and the “weeding effect in pre-emergence stage” value (Echinochloa crusgalli; 12 g a.i./mu) was 9. The “weeding effect in pre-emergence stage” value (Echinochloa crusgalli; 24 g a.i./mu) was 9, the “weeding effect in pre-emergence stage” value (Veronica didyma; 6 g a.i./mu) was 8 (Level 8: growth control rate is greater than or equal to 80% and less than 100%) and the “weeding effect in pre-emergence stage” value (Veronica didyma; 12 g a.i./mu) was 9. The “weeding effect in pre-emergence stage” value (Veronica didyma; 24 g a.i./mu) was 9, the “weeding effect in pre-emergence stage” value (Lolium perenne; 6 g a.i./mu) was 2 (Level 2: growth control rate is greater than or equal to 15% and less than 30%) and the “weeding effect in pre-emergence stage” value (Lolium perenne; 24 g a.i./mu) was 9.
